The values below come from article PMC12846068, “Insights into Transport Function of the Murine Organic Anion-Transporting Polypeptide OATP1B2 by Comparison with Its Rat and Human Orthologues” (Toxics, 2025).

The target in data set [1] is T1, mOATP1B2 (Mus musculus, UniProt Q9JJL3).
T1 construct: The full-length mOATP1B2 and rOATP1B2 consist of 689 and 678 amino acids
T1 sequence (Q9JJL3 1-689): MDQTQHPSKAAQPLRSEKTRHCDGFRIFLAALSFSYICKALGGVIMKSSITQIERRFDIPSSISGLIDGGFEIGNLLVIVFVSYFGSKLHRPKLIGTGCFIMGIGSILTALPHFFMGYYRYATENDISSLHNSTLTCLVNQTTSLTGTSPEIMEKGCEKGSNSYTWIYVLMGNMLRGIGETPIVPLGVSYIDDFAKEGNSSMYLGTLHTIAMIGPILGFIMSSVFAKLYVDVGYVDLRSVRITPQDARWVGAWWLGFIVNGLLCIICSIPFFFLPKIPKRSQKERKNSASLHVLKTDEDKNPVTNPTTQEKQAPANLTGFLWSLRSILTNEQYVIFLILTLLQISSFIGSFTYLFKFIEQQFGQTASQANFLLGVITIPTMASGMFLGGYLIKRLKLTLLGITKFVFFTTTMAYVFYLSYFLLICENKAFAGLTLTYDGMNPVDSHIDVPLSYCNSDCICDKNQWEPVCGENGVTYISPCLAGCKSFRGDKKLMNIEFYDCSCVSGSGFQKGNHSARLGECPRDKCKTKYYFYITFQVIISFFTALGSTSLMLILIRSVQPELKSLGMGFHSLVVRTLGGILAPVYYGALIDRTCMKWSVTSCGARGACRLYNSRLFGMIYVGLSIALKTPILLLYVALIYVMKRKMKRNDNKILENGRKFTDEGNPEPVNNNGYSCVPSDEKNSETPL
As to the kind of experiment: mOATP1B2-mediated uptake of [3H]-E1S and [3H]-TCA in overexpressing HEK293 cells. It counts as cell-based.
Description: (§1) To perform transporter-mediated uptake, both stably transfected cells and control cells (seeding density 2 × 10^5) were cultured for three days in 24-well plates (coated with 0.1 mg/mL poly-D-lysine hydrobromide). Then, 24 h before the start of the transport experiment, the gene expression of mOapt1b2 and rOATP1B2 was induced by 1 µg/mL tetracycline. At the beginning of each experiment, the cells were washed three times with pre-warmed 0.5 mL HBSS incubation buffer (supplemented with 20 mM HEPES, pH 7.4) and equilibrated for at least 20 min as described previously [27]. After aspirating the incubation buffer, the uptake process was started by adding 200 µL HBSS incubation buffer containing radio-labeled and unlabeled substances to each well and incubated at 37 °C for an appropriate time. The uptake was stopped by aspirating the reaction mixture and washing the cells 3 times with 0.4 mL ice-cold PBS buffer. After cell lysis with 0.6 mL of 1N NaOH overnight, the whole content of each well (0.6 mL) was transferred to a 6 mL scintillation vial (Sarstedt) containing 2.5 mL scintillation liquid (Rotiszint®eco plus, Carl Roth). The ^3H content was measured in a scintillation counter (Perkin Elmer TRICarb 2810 or HIDEX 600SL). […]
(§2) The absolute amount (pmol) of the radio-labeled probe substrate uptake was calculated and related to the determined protein values as well as the incubation time. […]

In data set [2] the target is T2, rOATP1B2 (Rattus norvegicus, UniProt Q9QZX8).
T2 construct: The full-length mOATP1B2 and rOATP1B2 consist of 689 and 678 amino acids
T2 sequence (Q9QZX8 1-687): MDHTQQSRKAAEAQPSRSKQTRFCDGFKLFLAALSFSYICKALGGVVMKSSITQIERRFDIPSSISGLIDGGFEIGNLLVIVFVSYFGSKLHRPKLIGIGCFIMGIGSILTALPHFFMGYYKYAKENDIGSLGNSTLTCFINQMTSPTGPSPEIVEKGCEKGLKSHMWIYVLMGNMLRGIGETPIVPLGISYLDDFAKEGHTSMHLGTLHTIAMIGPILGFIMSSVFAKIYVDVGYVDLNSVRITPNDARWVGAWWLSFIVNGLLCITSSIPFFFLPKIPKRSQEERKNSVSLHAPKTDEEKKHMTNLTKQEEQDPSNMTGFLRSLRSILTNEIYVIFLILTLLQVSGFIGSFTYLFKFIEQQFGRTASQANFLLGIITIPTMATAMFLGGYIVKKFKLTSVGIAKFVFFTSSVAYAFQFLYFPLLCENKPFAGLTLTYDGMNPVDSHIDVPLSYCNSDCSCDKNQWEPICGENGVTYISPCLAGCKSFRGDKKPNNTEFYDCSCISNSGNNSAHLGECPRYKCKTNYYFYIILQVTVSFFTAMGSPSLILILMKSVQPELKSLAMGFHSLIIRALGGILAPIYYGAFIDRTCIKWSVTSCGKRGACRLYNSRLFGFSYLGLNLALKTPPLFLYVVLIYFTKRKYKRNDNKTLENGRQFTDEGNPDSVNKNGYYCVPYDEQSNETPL
Put plainly: rOATP1B2-mediated uptake of [3H]-E1S and [3H]-TCA in overexpressing HEK293 cells. In kind it is cell-based. Conditions: rOATP1B2, 1 µM substrate; E1S 5 min, TCA 10 min.
Description: as §1, §2

Data set [3] has as its target T3, hOATP1B3 (Homo sapiens, UniProt Q9NPD5).
T3 sequence (Q9NPD5 1-702): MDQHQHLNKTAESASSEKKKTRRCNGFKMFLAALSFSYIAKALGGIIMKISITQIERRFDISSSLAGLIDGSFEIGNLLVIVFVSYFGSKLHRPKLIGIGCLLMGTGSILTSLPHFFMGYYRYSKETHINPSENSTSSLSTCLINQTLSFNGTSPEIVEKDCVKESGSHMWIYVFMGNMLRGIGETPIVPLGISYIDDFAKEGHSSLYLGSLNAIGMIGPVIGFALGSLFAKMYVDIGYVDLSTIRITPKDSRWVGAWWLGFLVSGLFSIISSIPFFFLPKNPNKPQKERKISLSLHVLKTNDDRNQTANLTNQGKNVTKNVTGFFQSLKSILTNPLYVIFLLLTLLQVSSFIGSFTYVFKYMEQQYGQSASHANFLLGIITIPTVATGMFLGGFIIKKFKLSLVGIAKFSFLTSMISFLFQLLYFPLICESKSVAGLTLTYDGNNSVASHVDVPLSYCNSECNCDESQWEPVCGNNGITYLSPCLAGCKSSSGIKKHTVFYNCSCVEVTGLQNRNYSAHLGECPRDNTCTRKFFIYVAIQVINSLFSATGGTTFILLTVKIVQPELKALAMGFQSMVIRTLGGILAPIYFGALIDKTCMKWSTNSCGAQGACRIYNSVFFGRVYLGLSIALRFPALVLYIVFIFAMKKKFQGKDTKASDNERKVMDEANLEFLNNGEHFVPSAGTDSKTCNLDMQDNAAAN
Put plainly: hOATP1B3-mediated uptake of [3H]-E1S and [3H]-TCA in transfected HEK293 cells.
Description: To perform transporter-mediated uptake, both stably transfected cells and control cells (seeding density 2 × 10^5) were cultured for three days in 24-well plates (coated with 0.1 mg/mL poly-D-lysine hydrobromide). Then, 24 h before the start of the transport experiment, the gene expression of mOapt1b2 and rOATP1B2 was induced by 1 µg/mL tetracycline. At the beginning of each experiment, the cells were washed three times with pre-warmed 0.5 mL HBSS incubation buffer (supplemented with 20 mM HEPES, pH 7.4) and equilibrated for at least 20 min as described previously [27]. After aspirating the incubation buffer, the uptake process was started by adding 200 µL HBSS incubation buffer containing radio-labeled and unlabeled substances to each well and incubated at 37 °C for an appropriate time. The uptake was stopped by aspirating the reaction mixture and washing the cells 3 times with 0.4 mL ice-cold PBS buffer. After cell lysis with 0.6 mL of 1N NaOH overnight, the whole content of each well (0.6 mL) was transferred to a 6 mL scintillation vial (Sarstedt) containing 2.5 mL scintillation liquid (Rotiszint®eco plus, Carl Roth). The ^3H content was measured in a scintillation counter (Perkin Elmer TRICarb 2810 or HIDEX 600SL).
To verify the results for the human transporters, both substrates were tested at a concentration of 0.01 µM. All experiments were conducted at least on two separate days as triplicates.
The absolute amount (pmol) of the radio-labeled probe substrate uptake was calculated and related to the determined protein values as well as the incubation time. The transporter-mediated uptake rate (net uptake) was obtained by subtracting the uptake rate in control (vector only)-transfected HEK293 cells from the uptake rate in transporter-transfected cells. To calculate the Km of the respective substrate, the transporter-mediated net uptake (pmol/mg protein/min) was plotted against the substrate concentrations in SigmaPlot 13. Weighted nonlinear regression was used for curve fitting (ligand binding with one site saturation).

The structures appear in SMILES notation.

With `C[C@H](CCC(=O)NCCS(=O)(=O)O)[C@H]1CC[C@H]2[C@@H]3[C@H](O)C[C@@H]4C[C@H](O)CC[C@]4(C)[C@H]3C[C@H](O)[C@]12C` [TCA, taurocholate], the “uptake compared to vector-transfected control cells” value in data set [1] (mOATP1B2, 1 µM substrate, E1S 5 min, TCA 10 min) is “more than 100 fold”; in data set [2], above 70 fold; in data set [3] (hOATP1B3, 0.01 µM substrate) it was 2.7 fold. In addition, the “affinity of mOATP1B2 lower than that of rOATP1B2” value in data set [1] (ratio of Km values mOATP1B2/rOATP1B2) turned out to be 4.6 fold. In addition, the “uptake over control cells / substrate status” value in data set [3] (hOATP1B3, substrate concentration not stated at the place) is 2-3 fold. In data set [3] (human, pH 7.4), the Km at 10 min worked out at 21 ± 8 µM.
